These results are taken from PubChem BioAssay (NCI).

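Exposure lasted 48 hours, with cells grown in 96-well plates and compounds tested at five concentrations. GI50 = concentration required for 50% inhibition of growth. At the TGI there is no net growth.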

Common to all, as to experiment: DTP human tumour cell line panel, 48 h
Assay [1] deals with HS 578T breast.
Assay [2] has as its system T-47D breast.
For assay [3], the system named is PC-3 prostate.
Assay [4] has as its system SF-295 CNS.
The subject of assay [5] is MALME-3M melanoma.
Assay [6] concerns SK-MEL-28 melanoma.
The test system of assay [7] is UACC-257 melanoma.
The subject of assay [8] is OVCAR-8 ovarian.

One may read the GI50 as the concentration that inhibits growth by half. Broadly, the TGI is the concentration at which net growth stops. Consider `CCOc1c(Br)cc(C2C(C(=O)OC)=CN(C)C=C2C(=O)OC)cc1OC`, for which the GI50 in assay [1] was 50.4 µM; in assay [2], 45.9 µM; in assay [3], 30 µM; in assay [4] it was 57.9 µM; in assay [5], above 100 µM; in assay [6] it was above 100 µM. The figures for the GI50 in assay [7] and in assay [8] were 72.3 µM and 68.1 µM, respectively. The TGI in assay [1], in assay [2], in assay [3], in assay [4], in assay [5] and in assay [6] was above 100 µM throughout. In addition, the concentration for total growth inhibition (TGI) in assay [7] and in assay [8] was above 100 µM each time.

Consider `C[C@@H]1CN(C(=O)c2ccc(NC(=O)c3cc(O[C@H](C)c4c(Cl)ccc(F)c4Cl)c(N)nn3)cc2)C[C@H](C)N1`, for which the GI50 was 3.02 µM in assay [1]; 4.51 µM in assay [2]; 3.65 µM in assay [3]; 1.11 µM in assay [4]; 0.808 µM in assay [5]; 1.75 µM in assay [6]. Moreover, the results for the GI50 in assay [7] and in assay [8] were 1.39 µM and 7.16 µM, respectively. In addition, the TGI was found to be 21.9 µM in assay [1]; 20.5 µM in assay [2]; 16.7 µM in assay [3]; 10.5 µM in assay [4]; 2.94 µM in assay [5]; 3.86 µM in assay [6]. Besides, the concentration for total growth inhibition (TGI) in assay [7] was 3.2 µM; in assay [8], 19.7 µM.

As to `O=[N+]([O-])c1ccc(Br)c([N+](=O)[O-])c1`, the GI50 was 1.98 µM in assay [1]; 2.13 µM in assay [2]; 1.94 µM in assay [3]; 2.38 µM in assay [4]; 1.96 µM in assay [5]; 1.89 µM in assay [6]. Moreover, the GI50 in assay [7] is 1.86 µM; in assay [8] it was 2.49 µM. Moreover, the concentration for total growth inhibition (TGI) in assay [1] is 4.97 µM; in assay [2], 4.94 µM; in assay [3], 3.93 µM; in assay [4], 5.96 µM; in assay [5] it was 4.18 µM; in assay [6], 3.64 µM. The total growth inhibition concentration (TGI) is 3.37 µM in assay [7] and 6.05 µM in assay [8].

With `COC(=O)Nc1nc2ccc(Oc3ccc(NC(=O)Nc4cccc(C(=O)O)c4)cc3)cc2[nH]1`, the GI50 in assay [1] was 4.28 µM; in assay [2] it was above 14.2 µM; in assay [3], 8.44 µM; in assay [4], 5.61 µM; in assay [5], 7.92 µM; in assay [6] it was 10 µM. Besides, the GI50 was above 22.2 µM in assay [7] and 9.4 µM in assay [8]. Also, the TGI was 24.5 µM in assay [1]; above 25 µM in assay [2]; above 25 µM in assay [3]; above 21.7 µM in assay [4]; above 25 µM in assay [5]; above 25 µM in assay [6]. For the same compound, the TGI in assay [7] and in assay [8] was above 25 µM throughout.

Regarding `CCN(CC)CCCC(C)Nc1cnc(C(=O)Nc2ccc(Cl)c3cccnc23)cn1` (stereo not drawn), the GI50 in assay [1] is 3.06 µM; in assay [2], 1.21 µM; in assay [3], 1.32 µM; in assay [4] it was 2.11 µM; in assay [5], 1.82 µM; in assay [6] it was 1.79 µM. Moreover, the GI50 is 2.91 µM in assay [7] and 3.17 µM in assay [8]. For the same compound, the TGI worked out at 13 µM in assay [1]; 2.97 µM in assay [2]; 2.82 µM in assay [3]; 4.92 µM in assay [4]; 3.3 µM in assay [5]; 3.28 µM in assay [6]. Besides, the concentration for total growth inhibition (TGI) turned out to be 7.96 µM in assay [7] and 10 µM in assay [8].

Turning to `CC[C@@H](C(=O)[C@@H](C)[C@@H](O)[C@H](C)[C@@H]1O[C@@H]([C@@H](CC)C(=O)O)CC[C@@H]1C)C1O[C@]2(C=CC(=O)[C@]3(CC[C@@](C)([C@H]4CC[C@](O)(CC)[C@H](C)O4)O3)O2)[C@H](C)C[C@@H]1C` (stereo partly drawn), the concentration for 50% growth inhibition (GI50) was 0.183 µM in assay [1]; 0.0596 µM in assay [2]; 0.0665 µM in assay [3]; 1.21 µM in assay [4]; 0.163 µM in assay [5]; 1.26 µM in assay [6]. For the same compound, the results for the concentration for 50% growth inhibition (GI50) in assay [7] and in assay [8] were 0.169 µM and 1.73 µM, respectively. Further, the TGI in assay [1] was 14.9 µM; in assay [2], 17.3 µM; in assay [3], 15.5 µM; in assay [4], 12.8 µM; in assay [5] it was 0.774 µM; in assay [6], 2.53 µM. The TGI in assay [7] was 16.7 µM; in assay [8], above 45.2 µM.

With `Cn1ccnc1C(=O)/C=C/c1ccc(C(=O)Nc2ccc(Cl)cc2)cc1`, the GI50 in assay [1] was 0.919 µM; in assay [2], 0.846 µM; in assay [3], 0.951 µM; in assay [4] it was 1.46 µM; in assay [5], 2.23 µM; in assay [6], 3.7 µM. Also, the GI50 in assay [7] is 2.48 µM; in assay [8], 1.01 µM. Also, the TGI in assay [1] was above 33.3 µM; in assay [2] it was above 33.3 µM; in assay [3], 19 µM; in assay [4], 6.11 µM; in assay [5], 12.2 µM; in assay [6], 9.89 µM. In addition, the TGI in assay [7] and in assay [8] was above 33.3 µM each time.

Consider `CC(C)(C)NC(C1=CC(C)(C)c2ccccc2C1=O)c1ccccc1` (stereo not drawn), for which the GI50 in assay [1] was 1.43 µM; in assay [2] it was 1.12 µM; in assay [3] it was 1.63 µM; in assay [4] it was 5.07 µM; in assay [5], 1.34 µM; in assay [6], 1.6 µM. In addition, the GI50 in assay [7] is 1.42 µM; in assay [8], 1.74 µM. Also, the total growth inhibition concentration (TGI) was 6.08 µM in assay [1]; 2.55 µM in assay [2]; 3.42 µM in assay [3]; 17.8 µM in assay [4]; 2.97 µM in assay [5]; 2.95 µM in assay [6]. Moreover, the TGI worked out at 2.94 µM in assay [7] and 4.19 µM in assay [8].
